# Test results as given in patent US11505543B2, “4-oxo-3,4-dihydroquinazoline compounds as inhibitors of human immunodeficiency virus replication” (VIIV HEALTHCARE UK (NO.5) LIMITED, priority 2018, dated 2022).
# Experiments:
# [1] = Compound cytotoxicity, XTT-based colorimetric assay; type: cell-based; conditions: human, uninfected MT2 cells, day 4, XTT
# Procedure, shortened: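 Run under the antiviral-assay protocol but without virus. Viability was read on day 4 and CC50 values were derived from the readout.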
# [2] = system: recombinant NL4-3 virus (nef section replaced with Renilla luciferase gene) in MT-2 cells; experiment: HIV cell culture assay (antiviral activity, luciferase readout); type: cell-based; conditions: Renilla, NL43, MT-2 cells infected for 4-5 days with recombinant NL4-3 Renilla luciferase virus, serial dilutions of compound
# Procedure, shortened: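 EC50 was derived by median-effect curve fitting of luciferase activity. The signal comes from MT-2 cells infected for 4–5 days with 293T-produced NL4-3 reporter virus, nef partly replaced by Renilla luciferase, in the presence of serially diluted compound.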
SMILES,CC50 at 4 day [1],EC50 [2]
"CCS(=O)(=O)c1ccccc1-c1ccc2c(=O)n(-c3ccc(Cl)c4c(NS(C)(=O)=O)nn(CC(F)F)c34)c([C@H](Cc3cc(F)cc(F)c3)NC(=O)Cn3nc(C(F)F)c4c3C(F)(F)[C@@H]3C[C@H]43)nc2c1 [Example 177, N-((S)-1-(3-(4-chloro-1-(2,2-difluoroethyl)-3-(methylsulfonamido)-1H-indazol-7-yl)-7-(2-(ethylsulfonyl)phenyl)-4-oxo-3,4-dihydroquinazolin-2-yl)-2-(3,5-difluorophenyl)ethyl)-2-((3bS,4aR)-3-(difluoromethyl)-5,5-difluoro-3b,4,4a,5-tetrahydro-1H-cyclopropa[3,4]cyclopenta[1,2-c]pyrazol-1-yl)acetamide]",> 500 nM,0.053 nM
"CC(C)S(=O)(=O)c1ccccc1-c1ccc2c(=O)n(-c3ccc(Cl)c4c(NS(C)(=O)=O)nn(CC(F)F)c34)c([C@H](Cc3cc(F)cc(F)c3)NC(=O)Cn3nc(C(F)F)c4c3C(F)(F)[C@@H]3C[C@H]43)nc2c1 [Example 178, N-((S)-1-(3-(4-chloro-1-(2,2-difluoroethyl)-3-(methylsulfonamido)-1H-indazol-7-yl)-7-(2-(isopropylsulfonyl)phenyl)-4-oxo-3,4-dihydroquinazolin-2-yl)-2-(3,5-difluorophenyl)ethyl)-2-((3bS,4aR)-3-(difluoromethyl)-5,5-difluoro-3b,4,4a,5-tetrahydro-1H-cyclopropa[3,4]cyclopenta[1,2-c]pyrazol-1-yl)acetamide]",> 500 nM,0.065 nM
"COc1ccc(-c2ccc3c(=O)n(-c4ccc(Cl)c5c(NS(C)(=O)=O)nn(C)c45)c([C@H](Cc4cc(F)cc(F)c4)NC(=O)Cn4nc(C(F)F)c5c4C(F)(F)[C@@H]4C[C@H]54)nc3c2)c(CO)c1 [Example 179, N-((S)-1-(3-(4-chloro-1-methyl-3-(methylsulfonamido)-1H-indazol-7-yl)-7-(2-(hydroxymethyl)-4-methoxyphenyl)-4-oxo-3,4-dihydroquinazolin-2-yl)-2-(3,5-difluorophenyl)ethyl)-2-((3bS,4aR)-3-(difluoromethyl)-5,5-difluoro-3b,4,4a,5-tetrahydro-1H-cyclopropa[3,4]cyclopenta[1,2-c]pyrazol-1-yl)acetamide]",> 500 nM,0.235 nM
"Cn1nc(NS(C)(=O)=O)c2c(Cl)ccc(-n3c([C@H](Cc4cc(F)cc(F)c4)NC(=O)Cn4nc(C(F)F)c5c4C(F)(F)[C@@H]4C[C@H]54)nc4cc(-c5cc(F)ccc5CO)ccc4c3=O)c21 [Example 180, N-((S)-1-(3-(4-chloro-1-methyl-3-(methylsulfonamido)-1H-indazol-7-yl)-7-(5-fluoro-2-(hydroxymethyl)phenyl)-4-oxo-3,4-dihydroquinazolin-2-yl)-2-(3,5-difluorophenyl)ethyl)-2-((3bS,4aR)-3-(difluoromethyl)-5,5-difluoro-3b,4,4a,5-tetrahydro-1H-cyclopropa[3,4]cyclopenta[1,2-c]pyrazol-1-yl)acetamide]",> 500 nM,0.2 nM
"CC(C)Oc1ccccc1-c1ccc2c(=O)n(-c3ccc(Cl)c4c(NS(C)(=O)=O)nn(C)c34)c([C@H](Cc3cc(F)cc(F)c3)NC(=O)Cn3nc(C(F)F)c4c3C(F)(F)[C@@H]3C[C@H]43)nc2c1 [Example 181, N-((S)-1-(3-(4-chloro-1-methyl-3-(methylsulfonamido)-1H-indazol-7-yl)-7-(2-isopropoxyphenyl)-4-oxo-3,4-dihydroquinazolin-2-yl)-2-(3,5-difluorophenyl)ethyl)-2-((3bS,4aR)-3-(difluoromethyl)-5,5-difluoro-3b,4,4a,5-tetrahydro-1H-cyclopropa[3,4]cyclopenta[1,2-c]pyrazol-1-yl)acetamide]",> 500 nM,0.71 nM
"CS(=O)(=O)Nc1nn(CC(F)(F)F)c2c(-n3c([C@H](Cc4cc(F)cc(F)c4)NC(=O)Cn4nc(C(F)(F)F)c5c4C(F)(F)[C@@H]4C[C@H]54)nc4cc(-c5ccccc5F)ccc4c3=O)ccc(Cl)c12 [Example 182, N-((S)-1-(3-(4-chloro-3-(methylsulfonamido)-1-(2,2,2-trifluoroethyl)-1H-indazol-7-yl)-7-(2-fluorophenyl)-4-oxo-3,4-dihydroquinazolin-2-yl)-2-(3,5-difluorophenyl)ethyl)-2-((3bS,4aR)-5,5-difluoro-3-(trifluoromethyl)-3b,4,4a,5-tetrahydro-1H-cyclopropa[3,4]cyclopenta[1,2-c]pyrazol-1-yl)acetamide]",> 500 nM,0.87 nM
"CS(=O)(=O)Nc1nn(CC(F)F)c2c(-n3c([C@H](Cc4cc(F)cc(F)c4)NC(=O)Cn4nc(C(F)F)c5c4C(F)(F)[C@@H]4C[C@H]54)nc4cc(-c5ccccc5F)ccc4c3=O)ccc(Cl)c12 [Example 183, N-((S)-1-(3-(4-chloro-1-(2,2-difluoroethyl)-3-(methylsulfonamido)-1H-indazol-7-yl)-7-(2-fluorophenyl)-4-oxo-3,4-dihydroquinazolin-2-yl)-2-(3,5-difluorophenyl)ethyl)-2-((3bS,4aR)-3-(difluoromethyl)-5,5-difluoro-3b,4,4a,5-tetrahydro-1H-cyclopropa[3,4]cyclopenta[1,2-c]pyrazol-1-yl)acetamide]",> 500 nM,0.39 nM
"Cn1nc(NS(C)(=O)=O)c2c(Cl)ccc(-n3c([C@H](Cc4cc(F)cc(F)c4)NC(=O)Cn4nc(C(F)F)c5c4C(F)(F)[C@@H]4C[C@H]54)nc4cc(-c5ccc(Cl)cc5F)ccc4c3=O)c21 [Example 184, N-((S)-1-(3-(4-chloro-1-methyl-3-(methylsulfonamido)-1H-indazol-7-yl)-7-(4-chloro-2-fluorophenyl)-4-oxo-3,4-dihydroquinazolin-2-yl)-2-(3,5-difluorophenyl)ethyl)-2-((3bS,4aR)-3-(difluoromethyl)-5,5-difluoro-3b,4,4a,5-tetrahydro-1H-cyclopropa[3,4]cyclopenta[1,2-c]pyrazol-1-yl)acetamide]",> 500 nM,1.8 nM
"Cn1nc(NS(C)(=O)=O)c2c(Cl)ccc(-n3c([C@H](Cc4cc(F)cc(F)c4)NC(=O)Cn4nc(C(F)F)c5c4C(F)(F)[C@@H]4C[C@H]54)nc4cc(-c5c(F)cccc5F)ccc4c3=O)c21 [Example 185, N-((S)-1-(3-(4-chloro-1-methyl-3-(methylsulfonamido)-1H-indazol-7-yl)-7-(2,6-difluorophenyl)-4-oxo-3,4-dihydroquinazolin-2-yl)-2-(3,5-difluorophenyl)ethyl)-2-((3bS,4aR)-3-(difluoromethyl)-5,5-difluoro-3b,4,4a,5-tetrahydro-1H-cyclopropa[3,4]cyclopenta[1,2-c]pyrazol-1-yl)acetamide]",> 1000 nM,0.62 nM
"COc1ccccc1-c1ccc2c(=O)n(-c3ccc(Cl)c4c(NS(C)(=O)=O)nn(C)c34)c([C@H](Cc3cc(F)cc(F)c3)NC(=O)Cn3nc(C(F)F)c4c3C(F)(F)[C@@H]3C[C@H]43)nc2c1 [Example 186, N-((S)-1-(3-(4-chloro-1-methyl-3-(methylsulfonamido)-1H-indazol-7-yl)-7-(2-methoxyphenyl)-4-oxo-3,4-dihydroquinazolin-2-yl)-2-(3,5-difluorophenyl)ethyl)-2-((3bS,4aR)-3-(difluoromethyl)-5,5-difluoro-3b,4,4a,5-tetrahydro-1H-cyclopropa[3,4]cyclopenta[1,2-c]pyrazol-1-yl)acetamide]",> 1000 nM,2.4 nM
